In patent US10716771B2, “Pharmaceutical composition for preventing or treating immune diseases or inflammatory diseases, containing biguanide derivative compound as active ingredient” (THE CATHOLIC UNIVERSITY OF KOREA INDUSTRY-ACADEMIC …, priority 2013, dated 2020):

Legend:
IL-17 = IL-17 generation in mouse spleen cells under Th17 differentiation, sandwich ELISA; format: cell-based; conditions: mouse spleen cells under Th17 stimulating condition, 3 days
Method: In order to verify whether the biguanide derivative compound of the present invention has the activity of […] generation of IL-17 as an inflammatory cytokine in a Th17 cell which is a pathogenic cell, an expression degree of IL-17 was measured by an ELISA assay.
(§1) Spleen cells were obtained from a normal mouse of C57BL/6 (Orient Company, Korea). That is, the tissue of the spleen extracted from the mouse was finely grinded by using a teasing slide and then erythrocytes in the spleen were removed by an erythrocyte hemolysis solution. Thereafter, a PBS buffer solution was added, centrifuged, and washed to obtain spleen cells.
1×10^6 of the spleen cells from the mouse prepared through Example <2-1> were divided in a 24-well plate coated with […] of anti-CD3 antibody and simultaneously treated with 1 μg/mL of anti-CD28 antibody, 2 ng/ml of TGF-β, 20 ng/ml of IL-6 20 ng/ml, 2 μg/ml of anti-IL-4, and 2 μg/ml of anti-IFNr as a condition capable of stimulating Th17 cells, and then the cells were incubated for 3 days to induce the differentiation of the Th17 cells. […]
In order to measure an amount of the generated IL-17 cytokine, a supernatant of the incubated cells was collected and the IL-17 expression degree was examined by using a sandwich ELISA. […] Thereafter, a PNPP/DEA solution was added and colored, and then the absorbance was measured at a wavelength of 405 nm.

TNF-α = TNF-α generation in LPS-treated mouse spleen cells, ELISA; format: cell-based; conditions: 2, 20, 200 μM with LPS 100 ng/ml, 3 days; compared with only LPS
Method: as §1
Since it is known that Metformin used as the diabetes therapeutic agent currently on the market has a slight effect of blocking TNF-α as the inflammatory cytokine, in order to verify whether the biguanide derivative compound of the present invention has activity of reducing the generation of TNF-α, the expression degree of TNF-α was measured by an ELISA assay. […]
In order to measure an amount of the generated TNF-α cytokine, a supernatant of the incubated cells was collected and the TNF-α generation degree was examined by using an ELISA. […] Thereafter, a PNPP/DEA solution was added and colored, and then the absorbance was measured at a wavelength of 405 nm.

| SMILES | IL-17 generated amount, dependence on treatment concentration (IL-17; 2 μM, 20 μM and 200 μM) | generated amount of IL-17 (IL-17; 200 μM, sandwich ELISA) | generated amount of TNF-α (TNF-α) |
| --- | --- | --- | --- |
| CC(C)NC(=N)NC(=N)N [SD-000196, 1-isopropylbiguanide] | reduced depending on the treatment concentration | completely suppressed | – |
| NC(N)=N/C(N)=N/c1cccc(F)c1 [SD-000216, 1-(3-fluorophenyl)biguanide] | – | – | very significantly reduced |
| N=C(N)NC(=N)Nc1ccc(F)cc1F [SD-000217, 1-(2,4-difluorophenyl)biguanide] | – | – | very significantly reduced |
